# Peptide text beside a SMILES is read from it.
# Biological target: T1, WT ASIC1a (Homo sapiens, UniProt P78348)
# T1 construct: expressed in transfected cells; host or cells: Xenopus laevis oocytes injected with cRNA
# T1 sequence (P78348 1-528 G212D): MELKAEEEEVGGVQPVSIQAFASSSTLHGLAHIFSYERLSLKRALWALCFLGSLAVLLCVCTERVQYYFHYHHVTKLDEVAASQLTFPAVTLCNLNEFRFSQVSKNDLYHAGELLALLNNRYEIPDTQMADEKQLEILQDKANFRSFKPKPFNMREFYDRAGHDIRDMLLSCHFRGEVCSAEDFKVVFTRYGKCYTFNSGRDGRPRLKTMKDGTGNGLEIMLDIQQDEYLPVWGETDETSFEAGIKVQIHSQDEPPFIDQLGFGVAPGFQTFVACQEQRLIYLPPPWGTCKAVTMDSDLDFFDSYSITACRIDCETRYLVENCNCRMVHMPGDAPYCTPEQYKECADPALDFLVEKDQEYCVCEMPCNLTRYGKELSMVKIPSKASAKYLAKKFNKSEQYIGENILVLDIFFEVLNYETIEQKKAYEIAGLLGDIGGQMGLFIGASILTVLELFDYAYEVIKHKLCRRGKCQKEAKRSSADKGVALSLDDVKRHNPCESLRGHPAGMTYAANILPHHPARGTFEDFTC
# Assay: Disappearance of FRRFa-induced Isust on washout, WT
# Format: cell-based
# Conditions: WT in direct comparison with N416C; washout after 50 μM FRRFa 45 s; n = 4
# Experimental: ASIC1a function was measured by two-electrode voltage-clamp after recombinant expression in Xenopus oocytes. The channels were activated by a pH5 stimulation solution from a conditioning solution of pH7.4. […] We measured the rate of FRRFa unbinding, as the disappearance of the sustained current after a 50-s incubation with 50 μM FRRFa, as 0.025 ± 0.005 s^−1 (n = 8, Fig. 2b). […] To determine the kinetics of FRRFa association on ASIC1a, we pre-applied the peptide at a concentration of 50 μM for different time periods in the conditioning solution and measured the sustained current fraction.
# Figure 2 FRRFa modulation of ASIC1a currents is only partially affected by acidic pocket mutations. (a) FRRFa concentration-response curve. Top, representative current traces. Bottom, Isust/Ipeak ratio induced by pH5 as a function of the FRRFa concentration (pre-applied during 45–50 s and present in pH5 solution), n = 7–11. (b) Time course of disappearance of the FRRFa-induced Isust. FRRFa at 50 μM was applied for 45 s, and current was measured once every minute during washout with FRRFa-free solution. Exponential fit shown as solid line (n = 4, error bars are smaller than the symbols). (c) Time course of appearance of Isust. Oocytes were exposed for various durations to 50 μM FRRFa in the pH7.4 conditioning solution, before activation of ASIC currents with pH5, including 50 μM FRRFa. […]
smiles,measurement,value
"N=C(N)NCCC[C@H](NC(=O)[C@H](CCCNC(=N)N)NC(=O)[C@@H](N)Cc1ccccc1)C(=O)N[C@@H](Cc1ccccc1)C(N)=O [FRRFa, Phe-Arg-Arg-Phe-amide] (H-FRRF-NH2)",koff,0.029 ± 0.011 s⁻¹
